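Exposure lasted 48 hours, with cells grown in 96-well plates and compounds tested at five concentrations. Here, GI50 denotes the concentration required for 50% inhibition of growth.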 Calls of active or inactive are those of the source. No stated cut-off is given here; in the data, active = GI50 up to about 1.1 µM and inactive = higher.

The values that follow come from ChEMBL document CHEMBL1201862, “PubChem BioAssay data set” (2004).

Test systems include M14; SK-OV-3; HCC 2998; U-251; A549; UACC-257; Malme-3M; MDA-MB-231; HCT-15; NCI-H226; SF-539; TK-10; SW-620; SK-MEL-2; ACHN; NCI-H23; NCI-H460; NCI/ADR-RES; OVCAR-8; SF-268.
What all share (experiment): NCI-60 cell line screen, 48 h

Turning to `O=C1c2ccccc2-c2nnc(-c3ccc([N+](=O)[O-])cc3)cc21`, the GI50 with M14, in the experiment with SK-OV-3, in the experiment on HCC 2998, with U-251, in the experiment with A549 and in the experiment with UACC-257 was > 10 µM (inactive) throughout. Moreover, the GI50 is > 10 µM (inactive) in the experiment on Malme-3M; > 10 µM (inactive) in the experiment with MDA-MB-231; above 10 µM in the experiment with HCT-15; > 10 µM (inactive) in the experiment with NCI-H226; > 10 µM (inactive) in the experiment with SF-539; > 10 µM (inactive) in the experiment with TK-10. For the same molecule, the GI50 in the experiment with SW-620, in the experiment with SK-MEL-2, with ACHN, with NCI-H23, in the experiment with NCI-H460 and with NCI/ADR-RES was > 10 µM (inactive) throughout. In addition, the GI50 with OVCAR-8 and with SF-268 was > 10 µM (inactive) in each case.

As for `[N-]=[N+]=Nc1c(C=O)c(=O)n2c3c(cccc13)CCC2`, the GI50 in the experiment with M14 is 1.95 µM (inactive); in the experiment on SK-OV-3 it was 19 µM (inactive); in the experiment on HCC 2998 it was 16.9 µM (inactive); with U-251 it was 13.6 µM (inactive); in the experiment with A549 it was 20.8 µM (inactive); in the experiment with UACC-257 it was 4.53 µM (inactive). Moreover, the GI50 was 1.84 µM (inactive) with Malme-3M; 11.3 µM (inactive) in the experiment with MDA-MB-231; 3.27 µM in the experiment with HCT-15; 11.9 µM (inactive) in the experiment on NCI-H226; 16.1 µM (inactive) in the experiment on SF-539; 4.74 µM (inactive) in the experiment on TK-10. Further, the GI50 with SW-620 is 1.39 µM (inactive); in the experiment on SK-MEL-2, > 10 µM (inactive); with ACHN, 3.44 µM (inactive); in the experiment on NCI-H23, 4.26 µM (inactive); with NCI-H460, 21.2 µM (inactive); in the experiment with NCI/ADR-RES, 7.76 µM (inactive). In addition, the figures for the GI50 in the experiment with OVCAR-8 and with SF-268 were 3.03 µM (inactive) and 14.4 µM (inactive), respectively.

Consider `O=C1C(Cl)=C(N2CCC[C@H]2CO)C(=O)c2c(O)ccc(O)c21`, for which the GI50 in the experiment on M14 was 1.95 µM (inactive); in the experiment with SK-OV-3, > 10 µM (inactive); in the experiment with HCC 2998 it was 4.55 µM (inactive); in the experiment with U-251, > 10 µM (inactive); in the experiment on A549, 8.2 µM (inactive); with UACC-257, 1.35 µM (inactive). The GI50 in the experiment on Malme-3M is 1.7 µM (inactive); with MDA-MB-231, 2.64 µM (inactive); in the experiment with HCT-15, 1.95 µM; in the experiment on NCI-H226, > 10 µM (inactive); in the experiment on SF-539, > 10 µM (inactive); with TK-10, 2.54 µM (inactive). Moreover, the GI50 with SW-620 is 1.7 µM (inactive); in the experiment on SK-MEL-2, 2.53 µM (inactive); in the experiment with ACHN, 2.03 µM (inactive); in the experiment on NCI-H23, 2.29 µM (inactive); in the experiment on NCI-H460, 8.63 µM (inactive); in the experiment on NCI/ADR-RES it was 2 µM (inactive). Also, the results for the GI50 in the experiment on OVCAR-8 and in the experiment with SF-268 were 2.88 µM (inactive) and 3.74 µM (inactive), respectively.

Take `CCCCOP(C)(=O)C(NC(=O)OCC)(C(F)(F)F)C(F)(F)F` (stereo not given): the GI50 in the experiment on M14, in the experiment on SK-OV-3, with HCC 2998, with U-251, in the experiment with A549 and in the experiment with UACC-257 was > 100 µM (inactive) in each case. The GI50 is > 100 µM (inactive) in the experiment with Malme-3M; > 100 µM (inactive) in the experiment with MDA-MB-231; above 100 µM in the experiment with HCT-15; > 100 µM (inactive) in the experiment with NCI-H226; > 100 µM (inactive) in the experiment with SF-539; > 100 µM (inactive) in the experiment with TK-10. In addition, the GI50 in the experiment with SW-620, with SK-MEL-2, with ACHN, in the experiment on NCI-H23, in the experiment on NCI-H460 and in the experiment on NCI/ADR-RES was > 100 µM (inactive) in each case. The GI50 in the experiment on OVCAR-8 and with SF-268 was > 100 µM (inactive) each time.
